In publication PMC6237183 (Nature structural & molecular biology, 2018):
pEC50: −log10 of the molar value. Several values for one entry are separate records, joined by “and”; a condition that tells them apart may be missing. Equal values may be shown once. Entries after “also recorded” stand apart in the source; their conditions may differ. Read-outs that look alike come from different tables or passages of the source.

Experiments:
[1] = biological target: 5-HT2BR wild-type (Homo sapiens, UniProt P41595); experiment: Gq-mediated calcium flux FLIPR assay; conditions: for Gq calcium flux Emax: normalized to percent 5-HT stimulation; for pEC50: agonist mode, N=3
[2] = biological target: T1, 5-HT2BR T140V^3.37 (Homo sapiens, UniProt P41595, T140V); experiment: [3H]-LSD competitive radioligand binding; conditions: T140V^3.37 mutant, relative to wild-type
[3] = biological target: 5-HT2BR WT (Homo sapiens, UniProt P41595); experiment: β-Arrestin2 recruitment Tango assay
[4] = biological target: T2, 5-HT2BR A225S^5.46 (Homo sapiens, UniProt P41595, A225S); experiment: [3H]-LSD competitive radioligand binding; conditions: A225S^5.46 mutant, relative to wild-type
[5] = biological target: T3, 5-HT2BR T140S^3.37 (Homo sapiens, UniProt P41595, T140S); experiment: [3H]-LSD competitive radioligand binding; conditions: T140S^3.37 mutant, relative to wild-type
[6] = biological target: T4, 5-HT2BR T140A^3.37 (Homo sapiens, UniProt P41595, T140A); conditions: T140A^3.37 mutant, relative to wild-type
[7] = biological target: T4, 5-HT2BR T140A^3.37; experiment: [3H]-LSD competitive radioligand binding; conditions: T140A^3.37 mutant, relative to wild-type
[8] = biological target: T4, 5-HT2BR T140A^3.37; experiment: β-Arrestin2 recruitment Tango assay; conditions: T140A^3.37 mutant
[9] = biological target: T3, 5-HT2BR T140S^3.37; experiment: Gq-mediated calcium flux FLIPR assay
[10] = biological target: T5, 5-HT2BR A225G^5.46 (Homo sapiens, UniProt P41595, A225G); experiment: [3H]-LSD competitive radioligand binding; conditions: A225G^5.46 mutant, relative to wild-type
[11] = biological target: T2, 5-HT2BR A225S^5.46; experiment: Gq-mediated calcium flux FLIPR assay
[12] = biological target: T1, 5-HT2BR T140V^3.37; conditions: T140V^3.37 mutant, relative to wild-type
[13] = biological target: T5, 5-HT2BR A225G^5.46; experiment: Gq-mediated calcium flux FLIPR assay; conditions: for Emax: read-out: Gq calcium flux Emax
[14] = biological target: T6, 5-HT2BR (Homo sapiens, UniProt P41595); experiment: BRET β-arrestin2 recruitment assay
[15] = biological target: T6, 5-HT2BR; experiment: Phosphoinositide; assay type: cell-based
[16] = biological target: T7, 5-HT2BR L362F^7.35 (Homo sapiens, UniProt P41595, L362F); experiment: Gq-mediated calcium flux FLIPR assay; conditions: L362F^7.35 mutant
[17] = biological target: 5-HT2BR L362A^7.35 (Homo sapiens, UniProt P41595, L362A); experiment: Gq-mediated calcium flux FLIPR assay; conditions: L362A^7.35 mutant, % 5-HT
[18] = biological target: T7, 5-HT2BR L362F^7.35; conditions: L362F^7.35 mutant
[19] = biological target: T7, 5-HT2BR L362F^7.35; experiment: BRET β-arrestin2 recruitment assay; conditions: L362F^7.35 mutant
[20] = biological target: T7, 5-HT2BR L362F^7.35; experiment: [3H]-LSD dissociation radioligand binding assay; conditions: L362F^7.35 vs WT
[21] = read-out: Gq calcium flux EC50, 5-HT2BR wild-type

T4 sequence (P41595 whole entry T140A): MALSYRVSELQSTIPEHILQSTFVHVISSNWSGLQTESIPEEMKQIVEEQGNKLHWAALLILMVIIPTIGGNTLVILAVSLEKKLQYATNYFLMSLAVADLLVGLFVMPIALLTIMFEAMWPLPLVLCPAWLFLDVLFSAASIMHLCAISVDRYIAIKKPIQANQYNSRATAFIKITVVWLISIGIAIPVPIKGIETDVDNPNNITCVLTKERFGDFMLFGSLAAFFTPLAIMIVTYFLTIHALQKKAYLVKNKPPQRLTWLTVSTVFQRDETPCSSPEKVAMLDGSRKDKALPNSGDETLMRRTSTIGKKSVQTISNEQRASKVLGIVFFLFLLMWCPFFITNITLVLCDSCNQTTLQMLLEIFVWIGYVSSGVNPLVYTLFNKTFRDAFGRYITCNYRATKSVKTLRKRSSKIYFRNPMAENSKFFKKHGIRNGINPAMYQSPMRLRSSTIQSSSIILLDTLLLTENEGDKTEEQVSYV
T6 sequence (P41595 whole entry): as the sequence (P41595 whole entry T140A) above, with A140T counted along it
Chain of 5-HT2BR wild-type (P41595 whole entry): as the sequence (P41595 whole entry T140A) above, with A140T counted along it
Chain of 5-HT2BR WT (P41595 whole entry): as the sequence (P41595 whole entry T140A) above, with A140T counted along it
T5 sequence (P41595 whole entry A225G): as the sequence (P41595 whole entry T140A) above, with A140T, A225G counted along it
T3 sequence (P41595 whole entry T140S): as the sequence (P41595 whole entry T140A) above, with A140S counted along it
T7 sequence (P41595 whole entry L362F): as the sequence (P41595 whole entry T140A) above, with A140T, L362F counted along it
T1 sequence (P41595 whole entry T140V): as the sequence (P41595 whole entry T140A) above, with A140V counted along it
T2 sequence (P41595 whole entry A225S): as the sequence (P41595 whole entry T140A) above, with A140T, A225S counted along it
Chain of 5-HT2BR L362A^7.35 (P41595 whole entry L362A): as the sequence (P41595 whole entry T140A) above, with A140T, L362A counted along it

## COc1ccc(CC2NCCc3c2[nH]c2ccccc32)c(Cl)c1OC (centres unmarked) [des-methyl LY266097 analog]
[1]; 5-HT2BR wild-type
  Gq calcium flux Emax: 93%
[1]; [21]
  pEC50: 7.70

## CC[C@@H](CO)NC(=O)[C@@H]1C=C2c3cccc4[nH]cc(c34)C[C@H]2N(C)C1 [methylergonovine]
[2]
  binding affinity: significantly diminished
[3]
  pEC50: 8.92
[4]
  binding affinity: did not substantially affect
[5]
  binding affinity: spared
[6]
  Gq calcium flux agonism: significantly diminished
[1]; 5-HT2BR wild-type
  Gq calcium flux agonist activity: Gq partial agonists
  Gq calcium flux Emax: 64%
[1]; Gq calcium flux EC50, 5-HT2BR wild-type
  pEC50: 7.51 and 7.72 and 7.64 and 7.68
[7]
  binding affinity: significantly diminished
[8]
  β-arrestin2 recruitment: failed to recruit β-arrestin2
[9]
  pEC50: 7.74
[9]; read-out: Gq calcium flux Emax
  Emax: 64%
[10]
  binding affinity: did not substantially affect
[11]
  pEC50: 7.82
[11]; read-out: Gq calcium flux Emax
  Emax: 58%
[12]
  Gq calcium flux agonism: significantly diminished
[13]; Gq calcium flux EC50, A225G^5.46 mutant
  pEC50: 7.92
[13]
  Emax: 55%

## Cc1ccc2[nH]c3c(c2c1)CCNC3Cc1ccccc1Cl (centres unmarked) [2-ClBenzyl]
[1]; 5-HT2BR wild-type
  Gq calcium flux Emax: 28%
[1]; [21]
  pEC50: 7.46

## COc1ccc(CC2NCCc3c2[nH]c2ccc(C)cc32)c(Cl)c1OC (centres unmarked) [LY266097]
[3]; 5-HT2BR WT
  β-arrestin2 recruitment activity: without detectable β-arrestin2 activity; also recorded: no β-arrestin2 recruitment activity
[14]
  β-arrestin2 antagonism by BRET: potent β-arrestin2 antagonism
[14]; real-time, across specific time points
  β-arrestin2 recruitment by BRET: At no tested time point did LY266097 display β-arrestin2 recruitment
[1]; 5-HT2BR wild-type
  Gq calcium flux agonist activity: modest Gq partial agonism
  Gq calcium flux Emax: 62% and 54%
[1]; [21]
  pEC50: 7.43 and 7.39
[15]
  Gq function via PI hydrolysis: Gq partial agonism
[16]
  Gq agonist activity: abolished

## Cc1ccc2[nH]c3c(c2c1)CCNC3Cc1ccccc1 (centres unmarked) [unsubstituted Benzyl]
[1]; 5-HT2BR wild-type
  Gq calcium flux agonist activity: no detectible Gq agonist activity

## CN1C[C@H](C(=O)N[C@]2(C)O[C@@]3(O)[C@@H]4CCCN4C(=O)[C@H](Cc4ccccc4)N3C2=O)C=C2c3cccc4[nH]cc(c34)C[C@H]21 [ERG, ergotamine]
[1]; 5-HT2BR wild-type
  Gq calcium flux agonist activity: Gq partial agonists

## CC[C@@H](CO)NC(=O)[C@@H]1C=C2c3cccc4c3c(cn4C)C[C@H]2N(C)C1 [methysergide]
[1]; 5-HT2BR wild-type
  Gq calcium flux agonist activity: lack of agonist activity
[12]
  Gq calcium flux agonism: failed to demonstrate any measureable Gq agonist activity
[13]
  Emax: 54%

## CCN(CC)C(=O)[C@@H]1C=C2c3cccc4[nH]cc(c34)C[C@H]2N(C)C1 [LSD, lysergic acid diethylamide]
[17]
  Gq calcium flux Emax: 67%
[1]; 5-HT2BR wild-type
  Gq calcium flux agonist activity: Gq partial agonists
  Gq calcium flux Emax: 82% and 79%
[18]
  β-arrestin recruitment agonism: abolished
[19]
  time-dependent recruitment of β-arrestin: attenuated
[20]
  faster dissociation rate compared to 5-HT2BR WT: greater than 10 fold
